The results in this text go back to patent publication KR20230169706A, “베타-카리오필렌을 포함하는 존속성 세균 억제용 조성물” (국민대학교산학협력단, priority 2022, dated 2023).

Molecules are shown by their SMILES. “Also recorded” adds a separate entry of the source.

The test system of the experiment is persister cells of Staphylococcus aureus ATCC 6538 [황색포도상구균(Staphylococcus aureus ATCC 6538), 존속성 세균(persister cell)]. Description: Persister cell inhibition by beta-caryophyllene co-treated with antibiotics at 10x MIC (CFU count). The experiment is classed as cell-based.

On to `C=C1CC/C=C(\C)CC[C@@H]2[C@@H]1CC2(C)C` [베타-카리오필렌, β-caryophyllene], for which the “amount of persister cells” value is given as “상당량 감소” (beta-caryophyllene 1 mM or more, each antibiotic (oxacillin, tobramycin, ciprofloxacin) at 10x MIC, 24 h); “크게 저하” (beta-caryophyllene 1 to 10 mM); “존속성 세균의 양이 감소” (beta-caryophyllene together with antibiotic at 10x MIC, 24 h, no beta-caryophyllene concentration stated). The “inhibition of persister cells” value reads like this: (beta-caryophyllene 2 mM or more, all antibiotics (oxacillin, tobramycin, ciprofloxacin) at 10x MIC, 24 h, about 80% or more) at least 80%; (ciprofloxacin, weight ratio beta-caryophyllene:antibiotic about 10:1 to 100:1) at least 80%; (oxacillin, weight ratio beta-caryophyllene:antibiotic about 100:1 to 800:1) at least 80%; (tobramycin, weight ratio beta-caryophyllene:antibiotic about 5:1 to 30:1) at least 80%. Also, the “inhibitory effect on persister cells” value (beta-caryophyllene 2 to 10 mM, various antibiotics) was at least 80%. Further, for the setting “persister cells not killed by oxacillin, tobramycin or ciprofloxacin, no beta-caryophyllene concentration stated”, the “inhibition of persister cells (in words)” value is on record as “상당량 억제; also recorded: 효과적으로 억제; also recorded: 우수한 억제 활성”.
